Reference: patent US10829487B2, “Benzylamino substituted pyridopyrimidinones and derivatives as SOS1 inhibitors” (Boehringer Ingelheim International GmbH, priority 2017, dated 2020)

tested on: not listed separately; test: Metabolic (microsomal) stability assay, rat liver microsomes (RLM); format: in vitro ADME; settings: 1 μM test compound, 37° C.
Method: (§1) Metabolic (Microsomal) Stability Assay: The metabolic degradation of the test compound is assayed at 37° C. with pooled liver microsomes (mouse (MLM), rat (RLM) or human (HLM)). The final incubation volume of 74 μL per time point contains TRIS buffer (pH 7.5; 0.1 M), magnesium chloride (6.5 mM), microsomal protein (0.5 mg/mL for mouse/rat, 1 mg/mL for human specimens) and the test compound at a final concentration of 1 μM. Following a short preincubation period at 37° C., the reactions are initiated by addition of 8 μL beta-nicotinamide adenine dinucleotide phosphate, reduced form (NADPH, 10 mM) and terminated by transfering an aliquot into solvent after different time points. Additionally, the NADPH-independent degradation is monitored in incubations without NADPH, terminated at the last time point by addition of acetonitrile. The quenched incubations are pelleted by centrifugation (1811 g, 5 min). An aliquot of the supernatant is assayed by LC-MS/MS for the amount of parent compound. In vitro intrinsic clearance (CLint, in vitro) is calculated from the time course of the disappearance of the test drug during the microsomal incubation. Each plot is fitted to the first-order elimination rate constant as C(t)=C0*exp(−ke*t), where C(t) and C0 are the concentration of unchanged test drug at incubation time t and that at preincubation and ke is the disappearance rate constant of the unchanged drug. Subsequently, CLint, in vitro (μL min^−1·amount protein) values are converted to CLint, in vitro (mL min^−1·kg^−1) for the whole body. CLint, in vitro data are scaled up using physiological parameters. For better across species comparison the predicted clearance is expressed as percent of the liver blood flow [% QH] in the individual species. In general, high stability (corresponding to low % QH) of the compounds across species is desired.

Compound	RLM [% QH]
Cc1nc(N[C@H](C)c2cccc(C(F)(F)F)c2)c2cn(C3(C)CC3)c(=O)cc2n1 [I-25]	<23
Cc1nc(N[C@H](C)c2cccc(C(C)(F)F)c2)c2cn(C3(C)CC3)c(=O)cc2n1 [I-50]	<23
Cc1nc(N[C@H](C)c2cccc(C(C)(F)F)c2F)c2cn(C3(C(F)F)CC3)c(=O)cc2n1 [I-54]	<23
Cc1nc(N[C@H](C)c2cccc(C(F)F)c2F)c2cn(C3(C)CC3)c(=O)c(F)c2n1 [I-80]	<23
Cc1nc(N[C@H](C)c2cccc(C(F)F)c2F)c2cn(C3(CF)CC3)c(=O)c(F)c2n1 [I-81]	<23
Cc1nc(N[C@H](C)c2cccc(C(F)(F)F)c2F)c2cn(C3(C(F)F)CC3)c(=O)cc2n1 [I-98]	<23
Cc1c(=O)n([C@@H]2C[C@H]2C(F)F)cc2c(N[C@H](C)c3cccc(C(F)F)c3F)ncnc12 [I-166]	38
Cc1c(=O)n(C23CC(C2)C3)cc2c(N[C@H](C)c3cccc(C(F)F)c3F)ncnc12 [I-169]	44
Cc1c(=O)n(C23CC(F)(C2)C3)cc2c(N[C@H](C)c3cccc(C(F)F)c3F)ncnc12 [I-170]	37

target: protein-protein interaction between SOS1 and KRAS G12D (Homo sapiens (Human), UniProt Q07889); test: KRAS::SOS1 AlphaScreen Binding Assay; settings: KRAS G12D::SOS1 AlphaScreen; measured without EDTA unless marked with an asterisk
Outline: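 Nucleotide-exchange interaction read by AlphaScreen (GSH acceptor / streptavidin donor beads, 10 μg/mL each): 10 nM KRAS G12D(1-169)-Avi, 10 μM GDP, 5 nM GST-SOS1(564-1049), 1% DMSO. Compound preincubated 30 min, then beads 60 min at RT in the dark; 11-point 1:5 series from 100 μM, duplicates; IC50 by 4-parameter logistic fit.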

Sequence of protein-protein interaction between SOS1 and KRAS G12D (Q07889 564-1049, stated change not applied): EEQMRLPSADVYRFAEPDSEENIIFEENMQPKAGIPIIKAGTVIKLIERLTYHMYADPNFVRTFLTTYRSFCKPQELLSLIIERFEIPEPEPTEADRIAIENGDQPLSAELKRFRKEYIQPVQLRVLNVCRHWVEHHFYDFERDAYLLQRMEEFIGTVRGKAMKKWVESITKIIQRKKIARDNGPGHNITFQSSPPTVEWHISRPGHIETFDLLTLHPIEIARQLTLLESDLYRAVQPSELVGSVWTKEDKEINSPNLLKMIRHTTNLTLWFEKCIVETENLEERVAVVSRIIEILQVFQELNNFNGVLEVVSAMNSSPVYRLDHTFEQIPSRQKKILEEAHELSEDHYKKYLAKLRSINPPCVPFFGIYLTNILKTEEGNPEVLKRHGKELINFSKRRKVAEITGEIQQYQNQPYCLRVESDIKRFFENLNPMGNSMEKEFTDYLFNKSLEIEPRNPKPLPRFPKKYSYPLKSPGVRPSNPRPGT

Compound	IC50 [nM]
Cc1c(=O)n([C@@H]2C[C@H]2C(F)F)cc2c(N[C@H](C)c3cccc(C(F)F)c3F)ncnc12 [I-166]	26
Cc1c(=O)n(C23CC(C2)C3)cc2c(N[C@H](C)c3cccc(C(F)F)c3F)ncnc12 [I-169]	12
Cc1c(=O)n(C23CC(F)(C2)C3)cc2c(N[C@H](C)c3cccc(C(F)F)c3F)ncnc12 [I-170]	12

same assay, conditions: Table 20; KRAS::SOS1 AlphaScreen (SOS1 / KRAS G12D)

Compound	IC50 [nM]
Cc1nc(N[C@H](C)c2cccc(C(F)(F)F)c2)c2cn(C3(C)CC3)c(=O)cc2n1 [I-25]	13
Cc1nc(N[C@H](C)c2cccc(C(C)(F)F)c2)c2cn(C3(C)CC3)c(=O)cc2n1 [I-50]	9
Cc1nc(N[C@H](C)c2cccc(C(C)(F)F)c2F)c2cn(C3(C(F)F)CC3)c(=O)cc2n1 [I-54]	5
Cc1nc(N[C@H](C)c2cccc(C(F)F)c2F)c2cn(C3(C)CC3)c(=O)c(F)c2n1 [I-80]	9
Cc1nc(N[C@H](C)c2cccc(C(F)F)c2F)c2cn(C3(CF)CC3)c(=O)c(F)c2n1 [I-81]	6
Cc1nc(N[C@H](C)c2cccc(C(F)(F)F)c2F)c2cn(C3(C(F)F)CC3)c(=O)cc2n1 [I-98]	8

tested on: not listed separately; test: Metabolic (microsomal) stability assay, mouse liver microsomes (MLM); format: in vitro ADME; settings: 1 μM test compound, 37° C.
Method: as §1

Compound	MLM [% QH]
Cc1nc(N[C@H](C)c2cccc(C(F)(F)F)c2)c2cn(C3(C)CC3)c(=O)cc2n1 [I-25]	<24
Cc1nc(N[C@H](C)c2cccc(C(C)(F)F)c2)c2cn(C3(C)CC3)c(=O)cc2n1 [I-50]	<24
Cc1nc(N[C@H](C)c2cccc(C(C)(F)F)c2F)c2cn(C3(C(F)F)CC3)c(=O)cc2n1 [I-54]	55
Cc1nc(N[C@H](C)c2cccc(C(F)F)c2F)c2cn(C3(C)CC3)c(=O)c(F)c2n1 [I-80]	50
Cc1nc(N[C@H](C)c2cccc(C(F)F)c2F)c2cn(C3(CF)CC3)c(=O)c(F)c2n1 [I-81]	64
Cc1nc(N[C@H](C)c2cccc(C(F)(F)F)c2F)c2cn(C3(C(F)F)CC3)c(=O)cc2n1 [I-98]	<24
Cc1c(=O)n([C@@H]2C[C@H]2C(F)F)cc2c(N[C@H](C)c3cccc(C(F)F)c3F)ncnc12 [I-166]	48
Cc1c(=O)n(C23CC(C2)C3)cc2c(N[C@H](C)c3cccc(C(F)F)c3F)ncnc12 [I-169]	64
Cc1c(=O)n(C23CC(F)(C2)C3)cc2c(N[C@H](C)c3cccc(C(F)F)c3F)ncnc12 [I-170]	51

target: CYP3A4 (Homo sapiens (Human), UniProt P08684); test: Time dependent inhibition of CYP3A4 assay (TDI 3A4); format: in vitro ADME; settings: hydroxy-midazolam formation after 30 min relative to 0 min preincubation; 25 uM compound; human liver microsomes; midazolam substrate
Method: Time Dependent Inhibition of CYP3A4 Assay (TDI 3A4):
After preincubation, the incubate is diluted 1:10 and the substrate midazolam is added for the main incubation (15 min). The main incubation is quenched with acetonitrile and the formation of hydroxy-midazolam is quantified via LC/MS-MS. The formation of hydroxy-midazolam from the 30 min preincubation relative to the formation from the 0 min preincubation is used as a readout. Values of less than 100% mean that the substrate midazolam is metabolized to a lower extend upon 30 min preincubation compared to 0 min preincubation. In general low effects upon 30 min preincubation are desired (corresponding to values close to 100%)

Sequence of CYP3A4 (P08684 whole entry): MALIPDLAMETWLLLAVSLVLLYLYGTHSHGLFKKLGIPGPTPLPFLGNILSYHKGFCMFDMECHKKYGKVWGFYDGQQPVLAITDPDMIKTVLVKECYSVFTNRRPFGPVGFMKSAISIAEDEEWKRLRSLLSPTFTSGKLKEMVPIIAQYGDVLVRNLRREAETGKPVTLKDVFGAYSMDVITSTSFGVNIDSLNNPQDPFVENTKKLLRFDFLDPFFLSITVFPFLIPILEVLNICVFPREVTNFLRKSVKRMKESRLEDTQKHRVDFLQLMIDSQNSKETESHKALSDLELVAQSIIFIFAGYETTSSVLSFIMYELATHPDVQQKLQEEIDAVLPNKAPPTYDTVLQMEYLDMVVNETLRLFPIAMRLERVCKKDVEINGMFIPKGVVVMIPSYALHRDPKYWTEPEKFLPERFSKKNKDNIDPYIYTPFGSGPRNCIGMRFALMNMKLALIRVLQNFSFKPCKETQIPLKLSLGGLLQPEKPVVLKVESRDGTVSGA

Compound	TDI 3A4 [%]
Cc1nc(N[C@H](C)c2cccc(C(F)(F)F)c2)c2cn(C3(C)CC3)c(=O)cc2n1 [I-25]	90
Cc1nc(N[C@H](C)c2cccc(C(C)(F)F)c2)c2cn(C3(C)CC3)c(=O)cc2n1 [I-50]	82
Cc1nc(N[C@H](C)c2cccc(C(C)(F)F)c2F)c2cn(C3(C(F)F)CC3)c(=O)cc2n1 [I-54]	84
Cc1nc(N[C@H](C)c2cccc(C(F)F)c2F)c2cn(C3(C)CC3)c(=O)c(F)c2n1 [I-80]	86
Cc1nc(N[C@H](C)c2cccc(C(F)F)c2F)c2cn(C3(CF)CC3)c(=O)c(F)c2n1 [I-81]	85
Cc1nc(N[C@H](C)c2cccc(C(F)(F)F)c2F)c2cn(C3(C(F)F)CC3)c(=O)cc2n1 [I-98]	85
Cc1c(=O)n([C@@H]2C[C@H]2C(F)F)cc2c(N[C@H](C)c3cccc(C(F)F)c3F)ncnc12 [I-166]	87
Cc1c(=O)n(C23CC(C2)C3)cc2c(N[C@H](C)c3cccc(C(F)F)c3F)ncnc12 [I-169]	84
Cc1c(=O)n(C23CC(F)(C2)C3)cc2c(N[C@H](C)c3cccc(C(F)F)c3F)ncnc12 [I-170]	82

tested on: not listed separately; test: Metabolic (microsomal) stability assay, human liver microsomes (HLM); format: in vitro ADME; settings: 1 μM test compound, 37° C.
Method: as §1

Compound	HLM [% QH]
Cc1nc(N[C@H](C)c2cccc(C(F)(F)F)c2)c2cn(C3(C)CC3)c(=O)cc2n1 [I-25]	<24
Cc1nc(N[C@H](C)c2cccc(C(C)(F)F)c2)c2cn(C3(C)CC3)c(=O)cc2n1 [I-50]	<24
Cc1nc(N[C@H](C)c2cccc(C(C)(F)F)c2F)c2cn(C3(C(F)F)CC3)c(=O)cc2n1 [I-54]	<24
Cc1nc(N[C@H](C)c2cccc(C(F)F)c2F)c2cn(C3(C)CC3)c(=O)c(F)c2n1 [I-80]	<24
Cc1nc(N[C@H](C)c2cccc(C(F)F)c2F)c2cn(C3(CF)CC3)c(=O)c(F)c2n1 [I-81]	<24
Cc1nc(N[C@H](C)c2cccc(C(F)(F)F)c2F)c2cn(C3(C(F)F)CC3)c(=O)cc2n1 [I-98]	<24
Cc1c(=O)n([C@@H]2C[C@H]2C(F)F)cc2c(N[C@H](C)c3cccc(C(F)F)c3F)ncnc12 [I-166]	24
Cc1c(=O)n(C23CC(C2)C3)cc2c(N[C@H](C)c3cccc(C(F)F)c3F)ncnc12 [I-169]	<24
Cc1c(=O)n(C23CC(F)(C2)C3)cc2c(N[C@H](C)c3cccc(C(F)F)c3F)ncnc12 [I-170]	<24
